For data set [1] the following is noted: 0 h.
Data set [2] is described as follows: Franz diffusion cell, membrane diffusion across poly(dimethylsiloxane) membrane. The settings on record: for relative order for membrane diffusion rate: ranking of excipients.
The nature of data set [3]: Franz diffusion cell, membrane diffusion across hairless mouse skin. The data set is classed as in vitro ADME. Particulars: for relative order for membrane diffusion rate: ranking of excipients. Here is the method: Diffusion of the compounds through hairless mouse skin into phosphate buffer in a Franz cell was carried out and measured as described in Example 1, with Sudan I being used in place of Fat Brown RR.

Setting [4] is: Table 3, saturated solution in alpha-terpineol, 0 hours.
Setting [5] is: Table 3, saturated solution in alpha-terpineol, 24 hours.
Where [6] appears, read: Table 3, saturated solution in isostearic acid, 0 hours.
Setting [7] is: Table 3, saturated solution in isostearic acid, 24 hours.
Setting [8] is: Table 3, saturated solution in propylene glycol, 0 hours.
[9] abbreviates: Table 3, saturated solution in propylene glycol, 24 hours.
Where [10] appears, read: Table 3, saturated solution in tetraglycol, 0 hours.
Where [11] appears, read: Table 3, saturated solution in tetraglycol, 24 hours.
Setting [12] is: saturated solution in alpha-terpineol, 0 hours.
The mark [13] stands for this setting: saturated solution in alpha-terpineol, 24 hours.
The mark [14] stands for this setting: saturated solution in isostearic acid, 0 hours.
The mark [15] stands for this setting: saturated solution in isostearic acid, 24 hours.
Where [16] appears, read: saturated solution in propylene glycol, 0 hours.
Where [17] appears, read: saturated solution in propylene glycol, 24 hours.
Where [18] appears, read: saturated solution in tetraglycol, 0 hours.
The mark [19] stands for this setting: saturated solution in tetraglycol, 24 hours.
The mark [20] stands for this setting: saturated solution in alpha-terpineol, 6 hours.
Setting [21] is: saturated solution in alpha-terpineol, 12 hours.
The mark [22] stands for this setting: saturated solution in alpha-terpineol, 18 hours.
Where [23] appears, read: saturated solution in isostearic acid, 6 hours.
The mark [24] stands for this setting: saturated solution in isostearic acid, 12 hours.
Setting [25] is: saturated solution in isostearic acid, 18 hours.
Where [26] appears, read: saturated solution in propylene glycol, 6 hours.
The mark [27] stands for this setting: saturated solution in propylene glycol, 12 hours.
Where [28] appears, read: saturated solution in propylene glycol, 18 hours.
The mark [29] stands for this setting: saturated solution in tetraglycol, 6 hours.
Where [30] appears, read: saturated solution in tetraglycol, 12 hours.
The mark [31] stands for this setting: saturated solution in tetraglycol, 18 hours.

Experimental findings from US20050065062A1, “Method of formulating a pharmaceutical composition” (3M Innovative Properties Company, priority 2003, published 2005) are described below.

Like-named read-outs stand apart in the source and are kept apart here.

In the case of `C#C[C@]1(O)CC[C@H]2[C@@H]3CCC4=CC(=O)CC[C@@H]4[C@H]3CC[C@@]21CC` [levonorgestrel], the “CUMULATIVE AMOUNT OF COMPOUND DIFFUSED ACROSS SKIN” value in data set [1] worked out at 0 μg/10 mL. For the same compound, the “relative order for membrane diffusion rate” value (“relative order” for short) in data set [2] is “alpha-terpineol>isostearic acid>tetraglycol”.

On to `Oc1ccc2ccccc2c1N=Nc1ccccc1` [Sudan I], for which the “CUMULATIVE AMOUNT OF COMPOUND DIFFUSED ACROSS SKIN” value is recorded as 0 μg/10 mL in data set [3] (setting [4]); 72 μg/10 mL in data set [3] (setting [5]); 201 μg/10 mL in data set [3] (Table 3, saturated solution in alpha-terpineol, 50 hours); 259 μg/10 mL in data set [3] (Table 3, saturated solution in alpha-terpineol, 59 hours); 0 μg/10 mL in data set [3] (setting [6]); 38 μg/10 mL in data set [3] (setting [7]). For the same compound, the “CUMULATIVE AMOUNT OF COMPOUND DIFFUSED ACROSS SKIN” value stood at 118 μg/10 mL in data set [3] (Table 3, saturated solution in isostearic acid, 50 hours); 149 μg/10 mL in data set [3] (Table 3, saturated solution in isostearic acid, 59 hours); 0 μg/10 mL in data set [3] (setting [8]); 31 μg/10 mL in data set [3] (setting [9]); 108 μg/10 mL in data set [3] (Table 3, saturated solution in propylene glycol, 50 hours); 142 μg/10 mL in data set [3] (Table 3, saturated solution in propylene glycol, 59 hours). Also, the “CUMULATIVE AMOUNT OF COMPOUND DIFFUSED ACROSS SKIN” value in data set [3] (setting [10]) was 0 μg/10 mL; in data set [3] (setting [11]) it was 11 μg/10 mL; in data set [3] (Table 3, saturated solution in tetraglycol, 50 hours), 61 μg/10 mL; in data set [3] (Table 3, saturated solution in tetraglycol, 59 hours) it was 81 μg/10 mL. Also, the “relative order” value in data set [3] is given as “alpha-terpineol>tetraglycol”.

Regarding `CCN(CCO)c1ccc(N=Nc2ccc([N+](=O)[O-])cc2)cc1` [Disperse Red 1], in data set [2], the “relative order” value is “alpha-terpineol>isostearic acid>tetraglycol”. Further, the “CUMULATIVE AMOUNT OF COMPOUND DIFFUSED ACROSS SKIN” value in data set [2] (setting [12]) is 0 μg/10 mL; in data set [2] (setting [13]), 11 μg/10 mL; in data set [2] (saturated solution in alpha-terpineol, 48 hours) it was 25 μg/10 mL; in data set [2] (saturated solution in alpha-terpineol, 72 hours), 45 μg/10 mL; in data set [2] (setting [14]) it was 0 μg/10 mL; in data set [2] (setting [15]) it was 3 μg/10 mL. Moreover, the “CUMULATIVE AMOUNT OF COMPOUND DIFFUSED ACROSS SKIN” value in data set [2] (saturated solution in isostearic acid, 48 hours) is 6 μg/10 mL; in data set [2] (saturated solution in isostearic acid, 72 hours) it was 12 μg/10 mL; in data set [2] (setting [16]) it was 0 μg/10 mL; in data set [2] (setting [17]), 1 μg/10 mL; in data set [2] (saturated solution in propylene glycol, 48 hours) it was 4 μg/10 mL; in data set [2] (saturated solution in propylene glycol, 72 hours), 10 μg/10 mL. Also, the “CUMULATIVE AMOUNT OF COMPOUND DIFFUSED ACROSS SKIN” value in data set [2] (setting [18]) worked out at 0 μg/10 mL; in data set [2] (setting [19]), 1 μg/10 mL; in data set [2] (saturated solution in tetraglycol, 48 hours) it was 3 μg/10 mL; in data set [2] (saturated solution in tetraglycol, 72 hours), 6 μg/10 mL.

In the case of `Nc1ccc(N=Nc2cccc3ccccc23)c(N)c1` [Fat Brown RR], the “relative order” value in data set [3] is “alpha-terpineol>propylene glycol>isostearic acid>tetraglycol”. Besides, the “CUMULATIVE AMOUNT OF COMPOUND DIFFUSED ACROSS SKIN” value in data set [3] (setting [12]) amounted to 0 µg/mL; in data set [3] (setting [20]) it was 168 µg/mL; in data set [3] (setting [21]), 444 µg/mL; in data set [3] (setting [22]), 812 µg/mL; in data set [3] (setting [13]), 1162 µg/mL; in data set [3] (setting [14]), 0 µg/mL. In addition, the “CUMULATIVE AMOUNT OF COMPOUND DIFFUSED ACROSS SKIN” value in data set [3] (setting [23]) was determined as 41 µg/mL; in data set [3] (setting [24]) it was 92 µg/mL; in data set [3] (setting [25]) it was 169 µg/mL; in data set [3] (setting [15]) it was 262 µg/mL; in data set [3] (setting [16]), 0 µg/mL; in data set [3] (setting [26]), 84 µg/mL. In addition, the “CUMULATIVE AMOUNT OF COMPOUND DIFFUSED ACROSS SKIN” value in data set [3] (setting [27]) is 221 µg/mL; in data set [3] (setting [28]), 445 µg/mL; in data set [3] (setting [17]) it was 677 µg/mL; in data set [3] (setting [18]) it was 0 µg/mL; in data set [3] (setting [29]), 13 µg/mL; in data set [3] (setting [30]), 25 µg/mL. The results for the “CUMULATIVE AMOUNT OF COMPOUND DIFFUSED ACROSS SKIN” value in data set [3] (setting [31]) and in data set [3] (setting [19]) were 39 µg/mL and 52 µg/mL, respectively.

For `C[C@]12CC[C@H]3[C@@H](CCC4=CC(=O)CC[C@@]43C)[C@@H]1CC[C@@H]2O` [Testosterone, testosterone], the “CUMULATIVE AMOUNT OF COMPOUND DIFFUSED ACROSS SKIN” value in data set [3] (setting [4]) is 0 μg/10 mL; in data set [3] (Table 3, saturated solution in alpha-terpineol, 6 hours) it was 605 μg/10 mL; in data set [3] (Table 3, saturated solution in alpha-terpineol, 12 hours), 1585 μg/10 mL; in data set [3] (Table 3, saturated solution in alpha-terpineol, 18 hours), 3043 μg/10 mL; in data set [3] (setting [5]), 4414 μg/10 mL; in data set [3] (setting [6]) it was 0 μg/10 mL. The “CUMULATIVE AMOUNT OF COMPOUND DIFFUSED ACROSS SKIN” value in data set [3] (Table 3, saturated solution in isostearic acid, 6 hours) is 74 μg/10 mL; in data set [3] (Table 3, saturated solution in isostearic acid, 12 hours) it was 192 μg/10 mL; in data set [3] (Table 3, saturated solution in isostearic acid, 18 hours), 418 μg/10 mL; in data set [3] (setting [7]), 740 μg/10 mL; in data set [3] (setting [8]), 0 μg/10 mL; in data set [3] (Table 3, saturated solution in propylene glycol, 6 hours), 79 μg/10 mL. Besides, the “CUMULATIVE AMOUNT OF COMPOUND DIFFUSED ACROSS SKIN” value is 216 μg/10 mL in data set [3] (Table 3, saturated solution in propylene glycol, 12 hours); 546 μg/10 mL in data set [3] (Table 3, saturated solution in propylene glycol, 18 hours); 956 μg/10 mL in data set [3] (setting [9]); 0 μg/10 mL in data set [3] (setting [10]); 23 μg/10 mL in data set [3] (Table 3, saturated solution in tetraglycol, 6 hours); 46 μg/10 mL in data set [3] (Table 3, saturated solution in tetraglycol, 12 hours). The “CUMULATIVE AMOUNT OF COMPOUND DIFFUSED ACROSS SKIN” value in data set [3] (Table 3, saturated solution in tetraglycol, 18 hours) was found to be 81 μg/10 mL; in data set [3] (setting [11]), 119 μg/10 mL; in data set [3] (setting [12]), 0 µg/mL; in data set [3] (setting [20]), 605 µg/mL; in data set [3] (setting [21]), 1585 µg/mL; in data set [3] (setting [22]) it was 3043 µg/mL. The “CUMULATIVE AMOUNT OF COMPOUND DIFFUSED ACROSS SKIN” value in data set [3] (setting [13]) was 4414 µg/mL; in data set [3] (setting [14]), 0 µg/mL; in data set [3] (setting [23]) it was 74 µg/mL; in data set [3] (setting [24]), 192 µg/mL; in data set [3] (setting [25]) it was 418 µg/mL; in data set [3] (setting [15]), 740 µg/mL. The “CUMULATIVE AMOUNT OF COMPOUND DIFFUSED ACROSS SKIN” value in data set [3] (setting [16]) was 0 µg/mL; in data set [3] (setting [26]), 79 µg/mL; in data set [3] (setting [27]), 216 µg/mL; in data set [3] (setting [28]) it was 546 µg/mL; in data set [3] (setting [17]) it was 956 µg/mL; in data set [3] (setting [18]), 0 µg/mL. The “CUMULATIVE AMOUNT OF COMPOUND DIFFUSED ACROSS SKIN” value in data set [3] (setting [29]) turned out to be 23 µg/mL; in data set [3] (setting [30]), 46 µg/mL; in data set [3] (setting [31]) it was 81 µg/mL; in data set [3] (setting [19]), 119 µg/mL. Further, the “relative order” value in data set [3] is listed as “alpha-terpineol>propylene glycol>isostearic acid>tetraglycol”.
